Here are results for 22 molecules from patent US5719279A, “Asymmetrically substituted xanthines” (Boehringer Ingelheim KG, priority 1992, dated 1998).

The first assay concerns CF PAC cells. As to the kind of experiment: efflux of chloride ions in CF PAC cells (preliminary investigations). In kind it is cell-based, human (patients suffering from cystic fibrosis). The following applies: activity of A1-antagonists in CF PAC cells. The source says:
Cystic fibrosis--also known as mucoviscidosis--is a hereditary disorder caused by a genetic defect on a certain chromosome. Only homozygotic carriers of the feature succumb to the disease. The genetic defects leads to the .dysfunction of exocrine glands. As a result of increased production and greater viscosity of the secretions of the mucous glands in the bronchi, severe complications may arise in the respiratory tract. Preliminary investigations have shown that A1 -antagonists increase the efflux of chloride ions, e.g..in CF PAC cells. The cells come from a pancreas adenocarcinoma cell line which was isolated from patients suffering from cystic fibrosis (CF).
With `Nc1nc(Cl)nc2c1ncn2[C@@H]1O[C@H](CO)[C@@H](O)[C@H]1O` [2-chloroadenosine], the “blockade of the chloride efflux activity by agonists” value is “successfully blocked”.

A further assay addresses T1, human A1 adenosine receptor (Homo sapiens, UniProt P30542).
T1 sequence (P30542 1-326): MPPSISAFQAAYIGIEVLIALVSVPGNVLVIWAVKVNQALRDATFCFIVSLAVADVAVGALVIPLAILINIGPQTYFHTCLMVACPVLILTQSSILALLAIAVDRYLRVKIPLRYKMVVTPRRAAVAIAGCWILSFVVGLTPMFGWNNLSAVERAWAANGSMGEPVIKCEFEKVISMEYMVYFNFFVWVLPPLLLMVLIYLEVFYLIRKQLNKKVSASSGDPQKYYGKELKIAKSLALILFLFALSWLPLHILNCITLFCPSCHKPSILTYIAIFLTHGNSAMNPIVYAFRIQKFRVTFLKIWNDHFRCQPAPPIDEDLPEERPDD
In words: receptor binding, A1 adenosine receptor (analogously to Ensinger et al.). To be noted: Table Ia. On the procedure: The receptor binding values were determined analogously to Ensinger et al. in "Cloning and functional characterisation of human A1 adenosine receptor--Biochemical and Biophysical Communications, Vol 187, No. 2, 919-926, 1992".
For orientation: Ki means the equilibrium dissociation constant of an inhibitor or competing ligand from its target. The low end stands for tighter binding, the high end for weaker binding. The molecule `CCCn1c(=O)c2[nH]c(C3CCCC3)nc2n(CCCO)c1=O` [Example 06, 8-cyclopentyl-3-(3-hydroxypropyl)-1-propylxanthine] gave a Ki of 66.8 nM.
The same measure, in the same setting: the value for `CCCn1c(=O)c2[nH]c(C3CCCC3)nc2n(CCc2ccc(O)cc2)c1=O` [Example 24, 8-cyclopentyl-3-(2-(p-hydroxyphenyl)-ethyl)-1-propylxanthine] was 1.7 nM; that for `CCCn1c(=O)c2[nH]c(C3CCCC3)nc2n(CC=NO)c1=O` [Example 17, 8-cyclopentyl-3-hydroximinoethyl-1-propylxanthine] was 3.8 nM; that for `CCCn1c(=O)c2[nH]c(C3CCCC3)nc2n(CCC(=O)N2CCOCC2)c1=O` [Example 14, 8-cyclopentyl-3-(2-(N-morpholinocarbonyl)-ethyl)-1-propylxanthine] was 36.4 nM.
For the molecule `CCCn1c(=O)c2[nH]c(C3CCCC3)nc2n(CCC(N)=O)c1=O` [Example 11, 3-(2-carbamoylethyl)-8-cyclopentyl-1-propylxanthine], the affinity, expressed as Ki, was 4 nM.
As for `CCCn1c(=O)c2[nH]c(C3CCCC3)nc2n(CCC(=O)OC)c1=O` [Example 10, 8-cyclopentyl-3-(2-methoxycarbonylethyl)-1-propylxanthine], the affinity, expressed as Ki, was 3.1 nM.
Same read-out and setting: the value for `CCCn1c(=O)c2[nH]c(C3CCCC3)nc2n(CCN2CCSCC2)c1=O` [Example 68] was 32.6 nM; that for `CCCn1c(=O)c2[nH]c(C3CCCC3)nc2n(CCCC#N)c1=O` [Example 01, 3-(3-cyanopropyl)-8-cyclopentyl-1-propylxanthine] was 7.5 nM; that for `CCCn1c(=O)c2[nH]c(C3CCCC3)nc2n(CCOC(C)=O)c1=O` [Example 07, 8-cyclopentyl-3-(2-(methylcarbonyloxy)-ethyl)-1-propylxanthine] was 2.7 nM.
`CCCn1c(=O)c2[nH]c(C3CCCC3)nc2n(CCCOC)c1=O` [Example 04, 8-cyclopentyl-3-(3-methoxypropyl)-1-propylxanthine] came in with a Ki of 8 nM.
Molecule `CCCn1c(=O)c2[nH]c(C3CCCC3)nc2n(CCS(=O)(=O)CCO)c1=O` [Example 70, 8-cyclopentyl-3-(2-(2-hydroxyethyl)-sulphonylethyl)-1-propyl-xanthine] yielded a Ki of 6.2 nM.
With `CCCn1c(=O)c2[nH]c(C3CCCC3)nc2n(CCC(C)O)c1=O` (stereo not shown) [Example 15, 8-cyclopentyl-3-(3-hydroxybutyl)-1-propylxanthine], the Ki stood at 6.4 nM.
`CCCn1c(=O)c2[nH]c(C3CCCC3)nc2n(CCc2ccncc2)c1=O` [Example 59] displayed a Ki of 2 nM.
In turn, `CCCn1c(=O)c2[nH]c(C3CCCC3)nc2n(CCCc2cccnc2)c1=O` [Example 52] returned an inhibition constant (Ki) of 5 nM.
The same measure, in the same setting: the value for `CCCn1c(=O)c2[nH]c(C3CCCC3)nc2n(CCCc2ccc(OCC(=O)OCC)cc2)c1=O` [Example 31, 8-cyclopentyl-3-(3-(p-(ethoxycarbonylmethyloxy)-phenyl)-propyl)-1-propylxanthine] was 9.1 nM; that for `CCCn1c(=O)c2[nH]c(C3CCCC3)nc2n(CCO)c1=O` [Example 05, 8-cyclopentyl-3-(2-hydroxyethyl)-1-propylxanthine] was 46.7 nM; that for `CCCn1c(=O)c2[nH]c(C3CCCC3)nc2n(CCc2ccc(OC(C)=O)cc2)c1=O` [Example 28, 8-cyclopentyl-3-(2-(p-(methylcarbonyloxy)-phenyl)-ethyl)-1-propylxanthine] was 29.3 nM.
On to `CCCn1c(=O)c2[nH]c(C3CCCC3)nc2n(CCCN2CCOCC2)c1=O` [Example 19, 8-cyc lopentyl-3-(3-(N-morpholino)-propyl)-1-propylxanthine], for which the Ki amounted to 11.5 nM.
`CCCn1c(=O)c2[nH]c(C3CCCC3)nc2n(CCCC(N)=O)c1=O` [Example 60, 3-(3-(aminocarbonyl)-propyl)-8-cyclopentyl-1-propylxanthine]: the Ki was 3.8 nM.
`CCCn1c(=O)c2[nH]c(C3CCCC3)nc2n(CCSCCO)c1=O` [Example 47, 8-cyclopentyl-3-(2-(2-hydroxyethyl)-thioethyl)-1-propylxanthine] yielded a Ki of 2.1 nM.
As to `CCCn1c(=O)c2[nH]c(C3CCCC3)nc2n(CCCOC(C)=O)c1=O` [Example 08, 8-cyclopentyl-3-(3-acetoxypropyl)-1-propylxanthine], the Ki is 3.5 nM.
